According to patent EP0317728A2, “Use of 9-(beta-D-arabinofuranosyl) adenine derivatives for the preparation of pharmaceutical compositions for the treatment of aids” (WARNER-LAMBERT COMPANY, priority 1987, dated 1989):
pIC50: −log10 of the molar value.

Experiments:
Format in all cases: cell-based
[1] = test system: HTLV-III/LAV; assay: Inhibition of cytopathic effect (syncytial giant cell formation) in HTLV-III/LAV infected H9 cells; settings: cytopathic effect (syncytial giant cell formation) on day 7 post infection 50% that in drug-free control cultures, read-out: CPE* 50% Inhibitory Concentrations
Procedure: (§1) The antiviral activity of the compounds of the present invention against the HTLV-III/LAV virus was evaluated by determining the degree of inhibition of cytopathic effect (CPE) and reverse transcriptase (RT) activity of the drug in a subline of H9 cells at various concentrations.
(§2) HTLV-III/LAV inoculum was standardized for reverse transcriptase (RT) activity using purified avian myeloblastosis viral RT (BRL Labs, Gaithersberg, MD) and used to infect polybrene treated H9 cells at 0.02 RT units of HTLV-III/LAV per 2 x 10⁶ cells. The virus was adsorbed for two hours at 37°C and then the cells were washed and resuspended in RPMI-10% fetal bovine serum at 2 x 10⁵ cells/ml and dispersed in 1-ml aliquots into 24-well plates.
Syncytial giant cell formation appeared at 5-6 days post infection, and this cytopathic effect (CPE) was quantitatively measured by dispersing 0.1-ml aliquots into 0.1-ml portions of absolute methanol and enumerating the giant cells microscopically. The inhibition of cytopathic effect by treatment with representative compounds of the present invention is shown in the table, together with the inhibitory effect on reverse transcriptase activity.

[2] = test system: HTLV-III/LAV; assay: Inhibition of reverse transcriptase activity in culture medium of HTLV-III/LAV infected H9 cells; settings: reverse transcriptase in the culture medium on day 10 post infection 50% that in drug-free control cultures, read-out: RT** 50% Inhibitory Concentrations
Procedure: as §1, §2
Reverse transcriptase activity (RT) was measured using 1-ml culture aliquots which were clarified at 600 xg for 30 minutes, precipitated in 10% polyethylene glycol-0.13 M NaCl at 4°C for eighteen hours, and centrifuged at 600 xg for sixty minutes. The pellet was dissolved in glycerol-Tris buffer (50% glycerol, 25 mM Tris HCl, pH 7.5, 5 mM dithiothreitol, 15 mM KCl, 0.025% Triton-X, and 0.25 mM EDTA). […] Background counts were determined using poly dA oligo dT₁₂₋₁₈ as template and subtracted from the poly rA dT primer to determine the thymidine incorporation specifically due to reverse transcriptase activity. […]

[3] = test system: uninfected H9 cells; settings: human, 6 day
Procedure: as §1

Nc1ncnc2c1ncn2[C@@H]1O[C@H](COP(=O)(O)O)[C@@H](O)[C@@H]1O [9-(β-D-arabinofuranosyl)adenine, 5′-phosphate]
pIC50 [1]: 4.74
pIC50 [2]: 4.96

Nc1ncnc2c1ncn2[C@@H]1O[C@H](CO)[C@@H](O)[C@@H]1O [9-(β-D-arabinofuranosyl)adenine]
pIC50 ([1]; Human immunodeficiency virus 1, 168 h): 5.15
pIC50 ([2]; Human immunodeficiency virus 1, 240 h): 5.15
Cell Number*** 50% Inhibitory Concentrations [3]: >100 µM
